Laboratory results from US12261337B2, “Aqueous electrolyte, redox flow battery and use thereof” (priority 2018, dated 2025).

What was measured:
[1] = cited from earlier work
[2] = oxidized using Oxone; storage at 60° C., also in the absence of air; after three days

C1=C[CH]([Fe][CH]2C=CC=C2)C=C1 [Ferrocene, bis(η^5-cyclopentadienyl)iron(II)]
solubility in organic solvents ([1]; organic solvents): readily soluble
solubility in water ([1]; water): sparingly soluble

ferrocene-bis-sulfonic acid [Example 1]
stability of the charged molecule / charged electrolytes after storage [2]: irreversible precipitate
